Peptide text beside a SMILES is read from it. * marks the point of attachment. Cbz = O=C(OCc1ccccc1)*
These compounds were tested against rSmeCalp1 (recombinant Schistosoma mekongi calpain 1) (Schistosoma mekongi, UniProt A0A5B8WCQ5) (assay: fluorogenic protease assay (AMC release)).
Assay type: biochemical

Sequence of rSmeCalp1 (recombinant Schistosoma mekongi calpain 1) (A0A5B8WCQ5 entry or part of it): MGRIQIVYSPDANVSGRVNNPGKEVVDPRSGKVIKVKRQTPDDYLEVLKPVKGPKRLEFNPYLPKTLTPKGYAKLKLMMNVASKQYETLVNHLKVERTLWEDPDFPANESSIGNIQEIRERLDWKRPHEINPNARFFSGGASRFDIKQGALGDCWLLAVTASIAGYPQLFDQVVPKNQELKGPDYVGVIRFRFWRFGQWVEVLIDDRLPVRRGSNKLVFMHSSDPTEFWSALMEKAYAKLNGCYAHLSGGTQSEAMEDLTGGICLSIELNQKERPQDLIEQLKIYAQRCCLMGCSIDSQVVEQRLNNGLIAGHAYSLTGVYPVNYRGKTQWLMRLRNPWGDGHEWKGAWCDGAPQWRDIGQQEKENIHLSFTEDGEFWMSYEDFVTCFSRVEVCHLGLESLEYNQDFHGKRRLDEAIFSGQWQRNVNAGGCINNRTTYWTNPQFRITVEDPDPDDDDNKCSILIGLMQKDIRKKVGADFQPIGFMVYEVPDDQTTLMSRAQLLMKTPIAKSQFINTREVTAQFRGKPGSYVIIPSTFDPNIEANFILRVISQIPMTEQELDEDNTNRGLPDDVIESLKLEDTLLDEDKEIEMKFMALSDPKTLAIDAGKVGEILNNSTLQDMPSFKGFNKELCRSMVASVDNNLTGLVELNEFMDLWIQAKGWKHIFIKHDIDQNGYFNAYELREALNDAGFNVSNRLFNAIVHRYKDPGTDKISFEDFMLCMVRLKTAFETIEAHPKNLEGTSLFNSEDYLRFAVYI

| SMILES | inhibition at 100 µM |
| --- | --- |
| CC(C)C[C@H](NC(=O)[C@@H]1O[C@H]1C(=O)O)C(=O)NCCCCN=C(N)N [E64] | 98% |
| CC(C)CCNC(=O)[C@H](CC(C)C)NC(=O)[C@H]1O[C@@H]1C(=O)O [E64c] | 87% |
| CC(C)[C@H](NC(=O)OCc1ccccc1)C(=O)N[C@H](C=O)Cc1ccccc1 [MDL28170] (Cbz-Val-Phe-aldehyde) | 94% |
